Consider three compounds from US11672964B2, “Bioactive components conjugated to substrates of microneedle arrays” (University of Pittsburgh—Of the Commonwealth System of …, priority 2015, dated 2023).

One series relates to epidermal cells. The settings on record: pyramidal CMC-microneedle array, 5 mg/g of CMC, arrays removed after 5 minutes, 72 hours of exposure. As to the method:
Cytoxan® was integrated at a concentration of 5 mg/g of CMC, enabling delivery of approximately about 140 μg per array. This is a therapeutically relevant concentration based on the area of skin targeted, yet well below levels associated with systemic toxicities. Living human skin organ cultures were used to assess the cytotoxicty of Cytoxan®. Cytoxan® was delivered by application of arrays to skin explants as we previously described. Arrays and residual material were removed 5 minutes after application, and after 72 hours of exposure, culture living skin explants were cryo-sectioned and fixed. Apoptosis was evaluated using green fluorescent TUNEL assay (In Situ Cell Death Detection Kit, TMR […], Roche, cat #:11-684-795-910).

A further series deals with B16 melanoma. Kind of series: Treatment of established B16 skin tumors with MNAs. The conditions noted are these: MNAs once weekly for three weeks; for survival: combination: long term survival through day 70.
The test system of another series is human skin. Kind of series: Apoptosis in human skin at the chosen MNA doxorubicin dose. The conditions noted are these: MNA dose chosen for the tumor study.

Description for B16 melanoma: B16 skin tumors were established in normal mice by injection. Visible established cutaneous tumors were treated once weekly for three weeks with MNAs containing either doxorubicin alone, Poly(I:C) alone, or doxorubicin and Poly(I:C) incorporated into the same MNA. […] Tumor growth and survival were measured regularly for the duration of the study.

As for `O=P1(N(CCCl)CCCl)NCCCO1` (stereo not drawn) [Cytoxan®, cyclophosphamide], in the series on epidermal cells, the “apoptosis (TUNEL)” value is on record as “extensive apoptosis of epidermal cells”.

As for Poly(I:C), in the series with B16 melanoma, the tumor growth entry was “slowed tumor growth” and the survival was 50%.

As for `COc1cccc2c1C(=O)c1c(O)c3c(c(O)c1C2=O)C[C@@](O)(C(=O)CO)C[C@@H]3O[C@H]1C[C@H](N)[C@H](O)[C@H](C)O1` [doxorubicin], the “apoptosis and necrosis in human skin” value with human skin is given as “induces apoptosis in human skin without causing necrosis”. Further, in the series on B16 melanoma, the tumor growth result is “slowed tumor growth” and the survival is reported as 30%.
